From patent US9795626B2, “Cancer therapy using miRNAs” (THE UNIVERSITY OF WESTERN AUSTRALIA, priority 2012, dated 2017)

Tests used:
A2058 melanoma cells [1] = test: xCELLigence real-time cell invasion assay (Matrigel); assay type: cell-based; details: further study, 20-25 hour period
Text: (§1) Cell migration and invasion was monitored with a Real-Time Cell Analyser dual-plate (RTCA DP) xCELLigence System (Roche Applied Science; Mannheim, Germany). This instrument employs cellular migration plates (CIM-plate 16) which contain microelectronic sensors on the underside of an 8 μm microporous polyethylene terephthalate (PET) membrane of a Boyden-like upper chamber and a lower chamber containing media or chemoattractant. As cells migrate or invade from the upper chamber to the lower chamber they interact with the sensors causing an increase in electrical impedance. Changes in cell impedance over time relates to a change in the number of cells interacting with the sensors, allowing real-time measurement of cell migration as a cell index value. […] After 48 h incubation cells were trypsinised, resuspended in serum free media and seeded into the upper chamber of CIM-plates. The lower chambers were filled with media containing 10% FBS (chemoattractant) or serum free media as a control. Migration was monitored over a 24 hour period with impedance measurements every 15 min. For invasion assays, the CIM-plates were coated with Matrigel (BD Biosciences; diluted at a ratio of 1:20 in serum free medium) approximately 4 hours prior to seeding cells.

WM266-4 melanoma cells [2] = test: as above; assay type: cell-based; details: further study, 20-25 hour period
Text: as §1

1205Lu melanoma cells [3] = test: as above; assay type: cell-based; details: further study, 20-25 hour period
Text: as §1

A375 melanoma cells [4] = test: as above; assay type: cell-based; details: further study, 20-25 hour period
Text: as §1

melanoma cell lines = test: Cell viability assay (MTS) after miRNA transfection; assay type: cell-based; details: melanoma cells
Description: Cells were seeded in 96-well plates at a density of 2.5×10^3 cells per well and transfected with miRNA precursor molecules as above. Cell viability was measured 5 days after transfection using CellTitre 96 Aqueous One Solution Cell Proliferation Assay Kit (MTS assay) and a FLUOstar OPTIMA microplate reader.

A2058 melanoma cells [5] = test: Cell viability assay (MTS) after miRNA transfection, with or without drug; Bliss synergy analysis; details: MTS assay 5 days post-transfection
Description: (§5) Cells were seeded in 96-well plates at a density of 2.5×10^3 cells per well and transfected with miRNA precursor molecules as above. Cell viability was measured 5 days after transfection using CellTitre 96 Aqueous One Solution Cell Proliferation Assay Kit (MTS assay) and a FLUOstar OPTIMA microplate reader. For synergy analysis between drugs and miR-7-5p, cells were plated as above and drug or DMSO was added 3 days after transfection with miR-7-5p or miR-NC for 4 days, at which time cell viability was measured (7 days after transfection).
(§6) Statistical significance was calculated using Student's t test (one-tailed, unpaired) and the level of significance was set at p<0.05. Drug sensitivity (IC50) was calculated using GraphPad Software (GraphPad Prism, version 5.04). The Bliss additivism model was used for synergy analysis. […] Here, Ebliss is the fractional inhibition expected if the combination of miR-7-5p and drug B was exactly additive. If the experimentally measured fractional inhibition is greater than Ebliss, the combination is synergistic.

A2058 melanoma cells [6] = test: xCELLigence real-time cell migration assay; assay type: cell-based
Text: as §1

WM266-4 melanoma cells [7] = test: xCELLigence real-time cell migration assay; assay type: cell-based
Text: as §1

1205Lu melanoma cells [8] = test: xCELLigence real-time cell migration assay; assay type: cell-based; details: further study, 20-25 hour period
Text: as §1

A375 melanoma cells [9] = test: xCELLigence real-time cell migration assay; assay type: cell-based; details: further study, 20-25 hour period
Text: as §1

MM96L melanoma cells = test: Cell viability assay (MTS) after miRNA transfection, with or without drug; Bliss synergy analysis; details: MTS assay 5 days post-transfection
Description: as §5, §6

IRS-2 mRNA = test: RT-qPCR of IRS-2 mRNA after transfection; assay type: cell-based; details: WM266-4 and A2058; 24 hours after transfection, normalised to GAPDH, vs miR-NC
Description: (§2) Optimal cell numbers were transfected using Lipofectamine 2000 (Invitrogen) with miR-7-5p (SEQ ID NO: 1; synthesised by Ambion) or miR-NC precursor molecules (hereinafter “miR-NC”; Ambion AM17110) at final concentrations ranging from 1-30 nM. For siRNA transfections, Silencer Select siRNAs (Invitrogen) Negative Control No. 1 (si-NC; 4390843), si-IRS-2 #1 (s16486), si-IRS-2 #2 (s16487) were transfected using Lipofectamine 2000 (Invitrogen) according to the manufacturer's protocol. Cells were harvested 24 hours later for RNA or 2-3 days after transfection for protein extraction.

SK-MEL-28 melanoma cells = test: Cell viability assay (MTS) after miRNA transfection, with or without drug; Bliss synergy analysis; details: MTS assay, data not shown
WM266-4 melanoma cells [10] = test: as above; details: MTS assay, data not shown
P-IRS-2 = test: Immunoblotting after transfection of melanoma cells; assay type: cell-based
Description: as §2
(§3) Protein was harvested with Cytoplasmic Extract Buffer (CEB)-containing PhosSTOP phosphatase inhibitors (Roche; New South Wales, Australia) and Complete EDTA-free protease inhibitors (Roche). Cell lysates were frozen at −80° C. overnight, cleared by centrifugation at 13,000×g for 5 min, and supernatants collected. Total protein concentrations were determined by Bio-Rad protein assay (Bio-Rad; New South Wales, Australia) as per manufacturer's instructions and using a FLUOstar OPTIMA microplate reader.
(§4) Fifteen μg of total protein samples were resolved on NuPAGE NO VEX 4-12% Bis-Tris gels (Invitrogen) and transferred to polyvinylidene fluoride (PVDF) western blotting membranes (Roche). The blots were blocked for 1 hour with Odyssey Blocking Buffer (Millennium Science, Victoria, Australia) and incubated overnight at 4° C. with anti-IGF1R, anti-phospho-IGF1R, anti-IRS-1, anti-IRS-2, anti-phospo-IRS-2, anti-ERK 1/2, anti-phospho-ERK 1/2, anti-Akt, anti-phospho-Akt (Ser-473), anti-PAK1 (all from Cell Signaling Technology, Beverly, Mass.), or anti-FAK (Santa Cruz Biotechnology), anti-phospho-IRS-2 (Ser-731; Abeam, Cambridge, Mass.), or anti-β-actin (Abcam), followed by incubation with infrared-conjugated secondary antibodies for 1 hour at room temperature. The membranes were scanned with an Odyssey SA scanner to visualize protein expression (LICOR Biosciences, Lincoln, Nebr.).

P-IGF1R = test: as above; assay type: cell-based; details: 15 nM, 3 days post-transfection
Description: as §2, §3, §4

IGF1R = test: as above; assay type: cell-based; details: melanoma cell lines; 15 nM, 3 days post-transfection, vs miR-NC
Description: as §2, §3, §4

P-Akt = test: as above; assay type: cell-based; details: SK-MEL-28, WM266-4 and MM96L; 15 nM, 3 days post-transfection
Description: as §2, §3, §4

P-ERK 1/2 = test: as above; assay type: cell-based; details: A2058; 15 nM, 3 days post-transfection
Description: as §2, §3, §4

IRS-2 = test: as above; assay type: cell-based
Description: as §2, §3, §4

FAK = test: as above; assay type: cell-based; details: WM266-4 and A2058; 30 nM, protein harvested at time of migration assay (48 hours)
Description: as §2, §3, §4

PAK1 = test: as above; assay type: cell-based
Description: as §2, §3, §4

IRS-1 = test: as above; assay type: cell-based; details: 15 nM, 3 days post-transfection
Description: as §2, §3, §4

[11] = further study, 20-25 hour period
[12] = WM266-4 and A2058, 72 hours after transfection, vs miR-NC
[13] = WM266-4 and A2058, 30 nM, protein harvested at time of migration assay (48 hours)

## miR-7-5p: Synthetic miRNA precursor molecules corresponding to human miR-7-5p (Ambion, PM10047); SEQ ID NO: 1 (UGGAAGACUAGUGAUUUUGUUGU; synthetic precursor duplex form, further chemistry not given here; listed as Homo sapiens)
A2058 melanoma cells [1]
  rate of cell invasion compared with miR-NC: significantly reduced, or even blocked
WM266-4 melanoma cells [2]
  rate of cell invasion compared with miR-NC: significantly reduced, or even blocked
1205Lu melanoma cells [3]
  rate of cell invasion compared with miR-NC: significantly reduced, or even blocked
A375 melanoma cells [4]
  rate of cell invasion compared with miR-NC: significantly reduced, or even blocked
Melanoma cell lines
  final miR-7-5p concentration at which viability was significantly reduced: 1 nM
A2058 melanoma cells [5]
  cell viability compared with miR-NC: significantly reduced
A2058 melanoma cells [6]; 30 nM, seeded 48 hours after transfection, monitored 24 hours
  cell migration compared with miR-NC: significantly inhibited
A2058 melanoma cells [6]; [11]
  rate of cell migration compared with miR-NC: significantly reduced, or even blocked
WM266-4 melanoma cells [7]; 30 nM, seeded 48 hours after transfection, monitored 24 hours, data not shown
  cell migration compared with miR-NC: significantly inhibited
WM266-4 melanoma cells [7]; [11]
  rate of cell migration compared with miR-NC: significantly reduced, or even blocked
1205Lu melanoma cells [8]
  rate of cell migration compared with miR-NC: significantly reduced, or even blocked
A375 melanoma cells [9]
  rate of cell migration compared with miR-NC: significantly reduced, or even blocked
MM96L melanoma cells
  cell viability compared with miR-NC: significantly reduced
IRS-2 mRNA
  levels of IRS-2 mRNA: significantly decreased
SK-MEL-28 melanoma cells
  cell viability compared with miR-NC: significantly reduced
WM266-4 melanoma cells [10]
  cell viability compared with miR-NC: significantly reduced
P-IRS-2; SK-MEL-28, 15 nM, 3 days post-transfection
  IRS-2 phosphorylation: reduced
P-IRS-2; [12]
  active form of IRS-2 (P-IRS-2): reduced
P-IGF1R; A2058
  IGF1R phosphorylation: decreased
P-IGF1R; MM96L
  IGF1R phosphorylation: increased
P-IGF1R; SK-MEL-28
  IGF1R phosphorylation: did not change
IGF1R
  IGF1R expression: No change
P-Akt
  P-Akt: downregulated
P-ERK 1/2
  P-ERK 1/2: downregulated
IRS-2; A2058, 15 nM, 3 days post-transfection
  IRS-2 expression: reduced
IRS-2; [13]
  IRS-2 expression: reduction
IRS-2; [12]
  expression of IRS-2 protein: reduced
FAK
  FAK expression: reduction
PAK1; SK-MEL-28, WM266-4, MM96L and A2058, 15 nM, 3 days post-transfection, vs miR-NC
  protein level of PAK1: reductions
PAK1; [13]
  PAK1 expression: reduction
IRS-1; A2058
  IRS-1 expression: decrease
IRS-1; SK-MEL-28 and WM266-4
  IRS-1 expression: modest increase
